Source: patent US20050232983A1, “Transdermal patch” (INDEVUS PHARMACEUTICALS, INC., priority 2004, published 2005)

Assay: serum dehydroepiandrosterone sulfate after topical application of the composition
Format: in vivo
Details: blood sample of recipient after application to skin
Description: Delivery of dehydroepiandrosterone to the recipient's blood stream can be confirmed by analysis of a blood sample taken from the recipient.

**Q.** For `C[C@]12CC[C@H](O)CC1=CC[C@@H]1[C@@H]2CC[C@]2(C)C(=O)CC[C@@H]12` [dehydroepiandrosterone], which “plateau of serum dehydroepiandrosterone sulfate relative to baseline” value is on record?
**A.** at least twice baseline levels

**Q.** And the “time to increased serum levels of dehydroepiandrosterone sulfate” value?
**A.** within twenty-four hours
